The text below walks through data of patent US11478478B2, “2,3-disubstituted 1-acyl-4-amino-1,2,3,4-tetrahydroquinoline derivatives and their use as bromodomain inhibitors” (GLAXOSMITHKLINE INTELLECTUAL PROPERTY (NO.2) LIMITED, priority 2013, dated 2022).

This assay concerns the target T1, BRD4 BD2 (Homo sapiens, UniProt O60885, Y97A).
T1 construct: BRD4 (1-477) (Y97A) and (Y390A); made in house; host or cells: E. coli (pET15b vector)
Kind of assay: TR-FRET binding assay, BRD4 BD2 (BD1-mutated protein). As to conditions: read-out: pIC50 in the BRD4 BD2 assay (converted). On the procedure:
Time Resolved Fluorescence Resonance Energy Transfer (TR-FRET) Assay Binding was assessed using a time resolved fluorescent resonance energy transfer binding assay. This utilises a 6 His purification tag at the N-terminal of the proteins as an epitope for an anti-6 His antibody labeled with Europium chelate (PerkinElmer AD0111) allowing binding of the Europium to the proteins which acts as the donor fluorophore. A small molecule, high affinity binder of the bromodomains BRD2, BRD3, BRD4 and BRDT has been labeled with Alexa Fluor647 (Reference Compound X) and this acts as the acceptor in the FRET pair.
In the absence of a competing compound, excitation of the Europium causes the donor to emit at λ618 nm which excites the Alexa labelled bromodomain binding compound leading to an increased energy transfer that is measurable at λ647 nM. In the presence of a sufficient concentration of a compound that can bind these proteins, the interaction is disrupted leading to a quantifiable drop in fluorescent resonance energy transfer.
The binding of the compounds of formula (I) to Bromodomains BRD2, BRD3, BRD4 and BRDT was assessed using mutated proteins to detect differential binding to either Binding Domain 1 (BD1) or Binding Domain 2 (BD2) on the bromodomain. These single residue mutations in the acetyl lysine binding pocket greatly lower the affinity of the fluoroligand (Reference Compound X) for the mutated domain (>1000 fold selective for the non-mutated domain). Therefore in the final assay conditions, binding of the fluoroligand to the mutated domain cannot be detected and subsequently the assay is suitable to determine the binding of compounds to the single non-mutated bromodomain.
Recombinant Human Bromodomains [(BRD2 (1-473) (Y113A) and (Y386A), BRD3 (1-435) (Y73A) and (Y348A) BRD4 (1-477) (Y97A) and (Y390A) and BRDT (1-397) (Y66A) and (Y309A)] were expressed in E. coli cells (in pET15b vector for BRD2/3/4 and in pET28a vector for BRDT) with a 6-His tag at the N-terminal. The His-tagged Bromodomain pellet was resuspended in 50 mM HEPES (pH7.5), 300 mM NaCl, 10 mM imidazole & 1 μl/ml protease inhibitor cocktail and extracted from the E. coli cells using sonication and purified using a nickel sepharose high performance column, the proteins were washed and then eluted with a linear gradient of 0-500 mM imidazole with buffer 50 mM HEPES (pH7.5), 150 mM NaCl, 500 mM imidazole, over 20 column volumes. Final purification was completed by Superdex 200 prep grade size exclusion column. Purified protein was stored at −80° C. in 20 mM HEPES pH 7.5 and 100 mM NaCl. Protein identity was confirmed by peptide mass fingerprinting and predicted molecular weight confirmed by mass spectrometry.
All assay components were dissolved in buffer composition of 50 mM HEPES pH7.4, 50 mM NaCl, 5% Glycerol, 1 mM DTT and 1 mM CHAPS. The final concentration of bromodomain proteins were 10 nM and the Alexa Fluor647 ligand was at Kd. These components were premixed and 5 μl of this reaction mixture was added to all wells containing 50 nl of various concentrations of test compound or DMSO vehicle (0.5% DMSO final) in Greiner 384 well black low volume microtitre plates and incubated in dark for 30 minutes at rt. 5 μl of detection mixture containing 1.5 nM final concentration anti-6His Europium chelate was added to all wells and a further dark incubation of at least 30 minutes was performed. Plates were then read on the Envision platereader, (λex=317 nm, donor λem=615 nm; acceptor λem=665 nm; Dichroic LANCE dual). Time resolved fluorescent intensity measurements were made at both emission wavelengths and the ratio of acceptor/donor was calculated and used for data analysis. All data was normalized to the mean of 16 high (inhibitor control—Example 11 of WO 2011/054846A1) and 16 low (DMSO) control wells on each plate. A four parameter curve fit of the following form was then applied: y=a+((b−a)/(1+(10^/10^)^d) […]

Structures are written as SMILES. Structures can show the parent of a compound that is named as a salt.

For `CC(=O)N1c2ccc(F)cc2[C@H](Nc2ccc(C#N)cc2)[C@@H](C)[C@@H]1C1CC1` (racemic) [Example 161, rac-4-(((2S,3R,4R)-1-acetyl-2-cyclopropyl-6-fluoro-3-methyl-1,2,3,4-tetrahydroquinolin-4-yl)amino)benzonitrile], the IC50 was 0.1 µM.

Consider `CC(=O)N1c2ccc(C3=CCOCC3)cc2[C@H](Nc2ncccn2)[C@@H](C)[C@@H]1C1CC1` (racemic) [Example 177, rac-1-((2S,3R,4R)-2-cyclopropyl-6-(3,6-dihydro-2H-pyran-4-yl)-3-methyl-4-(pyrimidin-2-ylamino)-3,4-dihydroquinolin-1(2H)-yl)ethanone, formic acid salt], for which the IC50 was 0.1 µM.

On to `CC(=O)N1c2ccc(C3=CCOCC3)cc2[C@H](Nc2ccc(C#N)cn2)[C@@H](C)[C@@H]1C1CC1` (racemic) [Example 181, rac-6-(((2S,3R,4R)-1-acetyl-2-cyclopropyyl-6-(3,6-dihydro-2H-pyran-4-yl)-3-methyl-1,2,3,4-tetrahydroquinolin-4-yl)amino)nicotinonitrile], for which the IC50 is 0.1 µM.

Take `CC(=O)N1c2ccc(C3CCNCC3)cc2[C@H](Nc2cnc(C)cn2)[C@@H](C)[C@@H]1C` (racemic) [Example 183, rac-1-((2S,3R,4R)-2,3-dimethyl-4-((5-methylpyrazin-2-yl)amino)-6-(piperidin-4-yl)-3,4-dihydroquinolin-1(2H)-yl)ethanone, hydrochloride]: the IC50 was 1 to 100 µM.

Regarding `CC(=O)N1c2ccc(C3CCNCC3)cc2[C@H](Nc2ccc(C#N)cn2)[C@@H](C)[C@@H]1C` (racemic) [Example 187, rac-6-(((2S,3R,4R)-1-acetyl-2,3-dimethyl-6-(piperidin-4-yl)-1,2,3,4-tetrahydroquinolin-4-yl)amino)nicotinonitrile], the IC50 is 1 to 100 µM.

Regarding `CNC(=O)c1ccc(N[C@H]2c3cc(C4CCNCC4)ccc3N(C(C)=O)[C@@H](C)[C@@H]2C)cc1` (racemic) [Example 188, rac-4-(((2S,3R,4R)-1-acetyl-2,3-dimethyl-6-(piperidin-4-yl)-1,2,3,4-tetrahydroquinolin-4-yl)amino)-N-methylbenzamide], the IC50 was 1 to 100 µM.

As for `CC(=O)N1c2ccc(C3=CCNCC3)cc2[C@H](Nc2ccc(C#N)cc2)[C@@H](C)[C@@H]1C1CC1` (racemic) [Example 192, rac-4-(((2S,3R,4R)-1-acetyl-2-cyclopropyl-3-methyl-6-(1,2,3,6-tetrahydropyridin-4-yl)-1,2,3,4-tetrahydroquinolin-4-yl)amino)benzonitrile], the IC50 is 0.1 µM.

As to `CC(=O)N1c2ccc(N3CCOCC3)cc2[C@H](Nc2cccc(O)n2)[C@@H](C)[C@@H]1C1CC1` (racemic) [Example 210, rac-1-((2S,3R,4R)-2-cyclopropyl-4-((6-hydroxypyridin-2-yl)amino)-3-methyl-6-morpholino-3,4-dihydroquinolin-1(2H)-yl)ethanone], the IC50 is 1 to 100 µM.

As to `CC(=O)N1c2ccc(N3CCOCC3)cc2[C@H](Nc2cnc(C)cn2)[C@@H](C)[C@@H]1C1CC1` (racemic) [Example 211, rac-1-((2S,3R,4R)-2-cyclopropyl-3-methyl-4-((5-methylpyrazin-2-yl)amino)-6-morpholino-3,4-dihydroquinolin-1(2H)-yl)ethanone], the IC50 is 1 to 100 µM.

For the compound `CC[C@H]1[C@H](C)[C@@H](Nc2cnc(C)cn2)c2cc(N3CCNCC3)ccc2N1C(C)=O` (racemic) [Example 218, rac-1-((2S,3R,4R)-2-ethyl-3-methyl-4-((5-methylpyrazin-2-yl)amino)-6-(piperazin-1-yl)-3,4-dihydroquinolin-1(2H)-yl)ethanone], the IC50 is 1 to 100 µM.

Consider `CC[C@H]1[C@H](C)[C@@H](Nc2ccc(C(=O)NC)cc2)c2cc(N3CCNCC3)ccc2N1C(C)=O` (racemic) [Example 220, rac-4-(((2S,3R,4R)-1-acetyl-2-ethyl-3-methyl-6-(piperazin-1-yl)-1,2,3,4-tetrahydroquinolin-4-yl)amino)-N-methylbenzamide], for which the IC50 is 1 to 100 µM.
